According to patent US6602878B1, “Acylquanidine derivatives, method for preparing same, application as medicines and pharmaceutical compositions containing them” (Aventis Pharma S.A., priority 1998, dated 2003):

target: human αvβ3 receptor (Homo sapiens, UniProt P05106+P06756); experiment: Kistrin/Vitronectin Receptor (αvβ3) ELISA Test; format: binding; settings: kistrin-coated plates, 3 hours at ambient temperature, OD 450 nm, read-out: K/VnR IC50
Experimental: Kistrin/Vitronectin Receptor (αvβ3) ELISA Test
96-well MaxiSorp plates are coated overnight at […] with 100 μl of Kistrin at 1 μg/ml (dilution in coating buffer: 0.05 M (carbonate)/NaOH pH 9.6. The next day, the wells are emptied and the ligands (kistrin) are then fixed (fixation buffers: PBS containing 0.5% BSA (pH=7.4)) for 1 hour at ambient temperature under gentle agitation of 125 rpm. The wells are washed six times (washing buffer: PBS containing 0.05% Tween 20 (pH 7.7) then the following is added per well and in this order:
40 μl of incubation buffer
10 μl of the dilution of the product to be tested (the products are diluted in a 50:50 DMSO/water mixture)
50 μl of human αvβ3 receptor (cf Pytel et al. Methods Enzymol. (1987) 144 (Dilution in incubation buffer, adapted according to the batch of receptor and according to the ligand). The ligand, the αvβ3 receptor and the products to be studied are incubated for 3 hours at ambient temperature with gentle agitation of 125 rpm.
The wells are again washed six times, then incubated for 2 hours at ambient temperature with gentle agitation of 125 rpm, in the presence of 100 μl of anti-receptor antibody coupled to a peroxidase (The 4B12-HRP antibody is diluted in incubation buffer (50 mM TRIS pH 7.4; 0.5% BSA; 0.05% Tween 20; 1 mM MnCl2; 50 μM CaCl2; 50 μM MgCl2; 100 mM NaCl). The dilution is to be adapted according to the batch of receptor.
The wells are then washed six times before measurement of the ligand-receptor bond is carried out using a peroxidase developer kit (TBM Microwell Peroxidase Substrate System Kirkegaard; Ref cat 50-76-00).
This kit contains a flask A of substrate (3,3′,5,5′-tetramethylebenzidine at 0.4 g/l) and a flask B (H2O2 to 0.02% in Citrate/Citric acid). Extemporaneously, one volume of A is mixed with one volume of B, then the reaction mixture is distributed at a rate of 100 μl/wells.
The enzymatic reaction develops between 6 to 10 minutes for Kistrin/αvβ3 then its development is stopped by the addition of 100 μl of 1 M phosphoric acid. The optical density is determined at 450 nm.
Expression of the Results
The following curve is plotted: the bond percentage as a function of the logarithm of each concentration of the tested product.
For each product IC50 is determined according to the following formula:
B0=Maximum bond in the absence of any product
Bmin=Minimum bond in the presence of the highest

Sequence of human αvβ3 receptor (P06756 31-889 limits assumed): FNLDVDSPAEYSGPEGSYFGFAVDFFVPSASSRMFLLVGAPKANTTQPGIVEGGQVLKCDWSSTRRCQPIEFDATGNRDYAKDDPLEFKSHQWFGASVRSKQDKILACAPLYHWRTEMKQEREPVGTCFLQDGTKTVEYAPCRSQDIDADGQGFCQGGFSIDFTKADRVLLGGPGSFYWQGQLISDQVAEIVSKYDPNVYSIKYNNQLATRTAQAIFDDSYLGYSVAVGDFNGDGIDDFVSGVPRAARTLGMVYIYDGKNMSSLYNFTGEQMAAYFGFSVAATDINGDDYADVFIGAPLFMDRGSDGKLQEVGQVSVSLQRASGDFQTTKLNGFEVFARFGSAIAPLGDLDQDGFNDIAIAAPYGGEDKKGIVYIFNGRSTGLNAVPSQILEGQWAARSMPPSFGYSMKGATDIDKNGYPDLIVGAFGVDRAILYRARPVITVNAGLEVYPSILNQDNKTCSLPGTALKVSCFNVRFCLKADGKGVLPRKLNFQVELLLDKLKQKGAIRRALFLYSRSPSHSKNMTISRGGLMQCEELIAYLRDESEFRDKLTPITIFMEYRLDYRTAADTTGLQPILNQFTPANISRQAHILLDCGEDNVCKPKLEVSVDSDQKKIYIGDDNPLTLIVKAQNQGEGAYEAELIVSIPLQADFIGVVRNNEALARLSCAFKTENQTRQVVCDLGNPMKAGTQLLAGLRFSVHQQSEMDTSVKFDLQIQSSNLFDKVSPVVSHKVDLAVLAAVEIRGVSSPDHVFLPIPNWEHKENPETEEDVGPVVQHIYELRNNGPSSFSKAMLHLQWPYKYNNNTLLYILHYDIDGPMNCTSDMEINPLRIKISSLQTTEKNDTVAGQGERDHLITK
Sequence of human αvβ3 receptor (P06756 891-1048 partner limits assumed): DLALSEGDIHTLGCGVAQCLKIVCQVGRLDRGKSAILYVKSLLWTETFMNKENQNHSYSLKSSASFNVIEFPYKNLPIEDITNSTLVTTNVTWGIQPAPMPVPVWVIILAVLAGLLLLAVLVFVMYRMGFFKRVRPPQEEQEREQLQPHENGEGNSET
Sequence of human αvβ3 receptor (P05106 27-788): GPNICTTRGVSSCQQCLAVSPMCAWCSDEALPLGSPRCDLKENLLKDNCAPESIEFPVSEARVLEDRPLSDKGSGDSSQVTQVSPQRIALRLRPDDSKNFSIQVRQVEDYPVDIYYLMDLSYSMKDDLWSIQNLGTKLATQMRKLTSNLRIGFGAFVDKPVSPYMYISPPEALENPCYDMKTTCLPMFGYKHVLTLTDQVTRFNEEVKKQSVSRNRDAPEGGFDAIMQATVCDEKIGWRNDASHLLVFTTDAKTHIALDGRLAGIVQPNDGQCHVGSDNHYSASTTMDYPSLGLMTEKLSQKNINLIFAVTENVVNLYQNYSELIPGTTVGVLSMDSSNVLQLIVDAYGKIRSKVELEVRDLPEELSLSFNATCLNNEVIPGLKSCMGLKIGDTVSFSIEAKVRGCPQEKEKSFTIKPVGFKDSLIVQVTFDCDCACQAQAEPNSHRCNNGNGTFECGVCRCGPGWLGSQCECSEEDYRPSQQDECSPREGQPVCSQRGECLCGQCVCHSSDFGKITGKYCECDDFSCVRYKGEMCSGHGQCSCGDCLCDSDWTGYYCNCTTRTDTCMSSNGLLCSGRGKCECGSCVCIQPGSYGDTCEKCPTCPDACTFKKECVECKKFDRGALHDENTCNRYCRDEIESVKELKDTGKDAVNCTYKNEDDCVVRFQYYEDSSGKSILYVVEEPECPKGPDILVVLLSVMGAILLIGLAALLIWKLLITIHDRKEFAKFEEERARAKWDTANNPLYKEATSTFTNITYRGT

Row | SMILES | IC50 [nM]
1 | N=C(N)NC(=O)CCc1ccc(OCCC(NC(=O)OCc2ccccc2)C(=O)O)cc1 (stereo not drawn) [Example 1, O—[4-[3-[(aminoiminomethyl)amino]-3-oxopropyl]phenyl]-N-[(phenylmethoxy)carbonyl]-homoserine] | 31
2 | O=C(CCc1ccc(OCC[C@H](NC(=O)OCC23CC4CC(CC(C4)C2)C3)C(=O)O)cc1)NC1=NCCCN1 [Example 5, O—[4-[3-oxo-3-[(1.4,5,6-tetrahydro-2-pyrimidinyl)amino]-propyl]phenyl]-N-[[(1-tricyclo[3.3.1.1^3,7]decyl)-methoxy]-carbonyl]-homoserine] | 12
3 | Cc1cc(C)c(S(=O)(=O)NC(CCOc2ccc(CCC(=O)NC3=NCCCN3)cc2)C(=O)O)c(C)c1 (stereo not drawn) [Example 6, O—[4-[3-oxo-3-[(1.4,5,6-tetrahydro-2-pyrimidinyl)amino]-propyl)phenyl]-N-[(2.4,6-trimethylphenyl)sulphonyl]-homoserine] | 3.3
4 | O=C(CCc1ccc(OCCC(NS(=O)(=O)c2cccc3ccccc23)C(=O)O)cc1)NC1=NCCCN1 (stereo not drawn) [Example 7, O—[4-[3-oxo-3-[(1.4,5,6-tetrahydro-2-pyrimidinyl)amino]-propyl]phenyl]-N-[(1-naphthalenyl)sulphonyl]-homoserine] | 2.5

More lines, now with the values ahead:

Row | IC50 [nM] | SMILES
5 | 7.3 | O=C(CCc1ccc(OCC[C@H](NC(=O)OCc2ccccc2)C(=O)O)cc1)NC1=NCCCN1 [Example 2, O—[4-[3-oxo-3-[(1,4,5,6-tetrahydro-2-pyrimidinyl)amino]-propyl]phenyl]-N-[(phenylmethoxy)carbonyl]-homoserine]
6 | 403 | CCOC(=O)C(CCOc1ccc(CCC(=O)NC2=NCCCN2)cc1)NC(=O)OCc1ccccc1 (stereo not drawn) [Example 3, Ethyl O—[4-[3-oxo-3-[(1.4,5,6-tetrahydro-2-pyrimidinyl)amino]-propyl]phenyl]-N [(phenylmethoxy)carbonyl]-homoserinate]
7 | 5000 | CC(C)OC(=O)C(CCOc1ccc(CCC(=O)NC2=NCCCN2)cc1)NC(=O)OCc1ccccc1 (stereo not drawn) [Example 4, (1-Methyl)ethyl O—[4-[3-oxo-3-[(1.4,5,6-tetrahydro-2-pyrimidinyl)amino]-propyl]phenyl]-N-[(phenylmethoxy)carbonyl]-homoserinate]
8 | 13 | O=C(CCc1cccc(OCCC(NC(=O)OCc2ccccc2)C(=O)O)c1)NC1=NCCCN1 (stereo not drawn) [Example 8, O—[3-[3-oxo-3-[(1,4,5,6-tetrahydro-2-pyrimidinyl)amino]-propyl]phenyl]-N-[(phenylmethoxy)carbonyl]-homoserine;]
9 | 110 | O=C(CCc1cccc(OCCCC(NC(=O)OCc2ccccc2)C(=O)O)c1)NC1=NCCCN1 (stereo not drawn) [Example 9, 5-[3-[3-oxo-3-[(1.4,5,6-tetrahydro-2-pyrimidinyl)amino]-propyl]phenoxy]-N-[(phenylmethoxy)carbonyl]-norvaline]
